In brackets after ≈: the same amount, converted by molar mass. Like-named read-outs stand apart in the source and are kept apart here.
Legend:
[1] = Test Example 2. Absorbability of the solid dispersion containing the compound A in rats; assay type: in vivo; conditions: male, Crl:CD (SD), rat, plasma, po, 30 mg/kg, single dose 30 mg/kg as compound A, mean ± SD n=3
Procedure: A single dose of 10 mg/kg or 30 mg/kg, as the compound A, of the solid dispersions of Example 2 and Comparative Example 10, and the sample of Comparative Example 11 suspended in a 1% carboxymethylcellulose aqueous solution was orally administered to fasted male rats (8 weeks old, Crl:CD (SD), Japan Charles River Laboratories). A crystalline form of the compound A was used as a control (Comparative Example 12). A collection time was 0.5, 1, 2, 4, 8, and 24 hours after administration, and about 300 μL of blood was collected at each time point from vena caudalis (n=3). The obtained blood was centrifuged at 1500×g, 4° C. for 15 minutes to obtain a plasma. The concentration of the compound A in the plasma was measured by HPLC (Shiseido and Hitachi High-Technologies Corporation). A time to reach the highest concentration in the plasma (Tmax), the highest concentration in the plasma (Cmax) and an area under the plasma concentration-time curve (AUC) were calculated from the change in the concentration in the obtained plasma. Here, values in the table are the mean value±standard deviation of three examples.

[2] = Test Example 1. Solubility Test; assay type: physicochemical; conditions: thermodynamic from solid, shaken at 37° C. for 2 hours, mean of two measurements, read-out: Solubility of Compound A
Procedure: 5 mL of a first fluid (pH1.2) or 5 mL of a […] for an elution test in Japanese Pharmacopoeia was added to the solid dispersions of Example 1 and Comparative Examples 1 to 8, and the sample of Comparative Example 9, the solid dispersions were ground using a glass rod or a spatula, and then shaken at 37° C. for 2 hours. 400 μL of a mixed solution (acetonitrile/water=3/2) was immediately added to 600 μL of the sample solution filtered off using a 0.45 μm filter, and a concentration of the compound A in the sample solution was measured by HPLC (Shimadzu Corporation). Here, values in the table are the mean values obtained by repeating measurements twice.

Row | Tmax [1] | solubility at 2 h ([2]; pH 1.2, simulated gastric fluid, First fluid for dissolution test (pH1.2)) | solubility at 2 h ([2]; pH 6.8, aqueous buffer, Second fluid for dissolution test (pH6.8)) | SMILES
1 | 3.7 ± 3.8 h | – | – | N#Cc1cc(-c2nc3c(O)ncnc3s2)ccc1Oc1ccccc1 [Comparative Example 11, 2-(3-cyano-4-phenoxyphenyl)-7-hydroxythiazolo[5,4-d]pyrimidine]
2 | – | 0.39 µg/mL (≈ 1.13 µM) | 0.49 µg/mL (≈ 1.41 µM) | N#Cc1cc(-c2nc3c(O)ncnc3s2)ccc1Oc1ccccc1 [Comparative Example 9, 2-(3-cyano-4-phenoxyphenyl)-7-hydroxythiazolo[5,4-d]pyrimidine]
